This note sets out measurements from patent publication US4526891A, “Substituted alkyl amine derivatives of 6,11-dihydro-11-oxodibenz[b,e]oxepins” (Hoechst Roussel Pharmaceuticals Inc., priority 1983, dated 1985).

The assay relates to 2-phenyl-1,4-benzoquinone-induced writhing. Briefly: 2-phenyl-1,4-benzoquinone-induced writhing test in mice (analgesia). The format is in vivo. Conditions: for ED50: Mus musculus. In general terms: An intraperitoneal irritant provokes the stretching counted in writhing tests.
Setting [1] is: po, read-out: ED50 (dosage which exhibits 50% inhibition of writhing).

Each structure is given as a SMILES string. Like-named read-outs stand apart in the source and are kept apart here.

One may read the ED50 as the midpoint of the dose-response relation. With `O=C1c2ccccc2COc2ccc(CCN3CCN(c4ccccc4)CC3)cc21` [1-[2-(6,11-Dihydro-11-oxodibenz[b,e]oxepin-2-yl)ethyl]-4-phenylpiperazine], where the note is “oral dose, ** ED50, 50% inhibition, read-out: ED50 (dosage which exhibits 50% inhibition of writhing)”, the median effective dose (ED50) came to 25 mg/kg.

With `CNCCc1ccc2c(c1)C(=O)c1ccccc1CO2.Cl` [2-(6,11-Dihydro-11-oxodibenz[b,e]oxepin-2-yl)-N-methylethylamine hydrochloride], the ED50 under setting [1] turned out to be 9.8 mg/kg.

With `CCC(=O)O[C@](Cc1ccccc1)(c1ccccc1)[C@H](C)CN(C)C` [propoxyphene, reference compound], the median effective dose (ED50) (sc, read-out: dose giving 50% inhibition of writhing (ED50)) was 3.9 mg/kg.

Regarding `Cl.NCCc1ccc2c(c1)C(=O)c1ccccc1CO2` [2-(6,11-Dihydro-11-oxodibenz[b,e]oxepin-2-yl)ethylamine hydrochloride], the ED50 under setting [1] was found to be 7.4 mg/kg.

For `CN(C)CCc1ccc2c(c1)C(=O)c1ccccc1CO2.Cl` [2-(6,11-Dihydro-11-oxodibenz[b,e]oxepin-2-yl)-N,N-dimethylethylamine hydrochloride], under “25 mg/kg of body weight, subcutaneously (*)”, the “% Inhibition of writhing” value is given as 66%.
